Entries after “also recorded” stand apart in the source; their conditions may differ.
System: U937 AML cells
Experiment: AML xenograft model: luciferase-expressing U937 tumor cells in NSG mice, in-vivo bioluminescent imaging
Details: U937 i.v., azacitidine 7.5 mg/kg QD 5 days i.p., NAE1 SMI 120 mg/kg QD 5 days on, 2 days rest, magrolimab 250 μg QD
Protocol: FIG. 3 illustrates that NAE1 inhibition in combination with CD47 blockade elicits robust anti-tumor efficacy in an AML xenograft model. Luciferase-expressing U937 tumor cell were transferred to NSG mice by intravenous injection. On day 5, mice were randomized into cohorts and treated with Vehicle [20% (2-Hydroxypropyl)-β-cyclodextrin], azacitidine (7.5 mg/kg QD for 5 days), or NAE1 small molecule inhibitor (120 mg/kg QD for 5 days followed by 2 days/rest) by intraperitoneal injection. Magrolimab was administered 48 hours post chemo treatment (250 μg QD for the entire study) as a single agent or in combination. Tumor growth was monitored using in-vivo bioluminescent imaging and the resulting signal was reported as total flux.
To evaluate, if the combination of NAE1 SMI with magrolimab could increase the elimination of leukemia cells in vivo, a treatment study was conducted in mice transplanted with U937 AML cells. In addition to NAE1 SMI, azacitidine, a hypomethylating and chemotherapeutic agent indicated for AML was also included into the study, since azacitidine had previously been established to enhance elimination of AML cells when combined with magrolimab (Chao, et al., Front Oncol (2020) 9:1380). […]

Nc1ncn([C@@H]2O[C@H](CO)[C@@H](O)[C@H]2O)c(=O)n1 [azacitidine, 5-azacytidine, reference compound]
tumor growth / cancer remission (result in words): did initially slow tumor growth compared to vehicle control but failed to stop cancer progression

B1: magrolimab: anti-CD47 antibody (antibody, chains of the INN, looked up, V domains shown)
VH: QVQLVQSGAEVKKPGASVKVSCKASGYTFTNYNMHWVRQAPGQRLEWMGTIYPGNDDTSYNQKFKDRVTITADTSASTAYMELSSLRSEDTAVYYCARGGYRAMDYWGQGTLVTVSS
VL: DIVMTQSPLSLPVTPGEPASISCRSSQSIVYSNGNTYLGWYLQKPGQSPQLLIYKVSNRFSGVPDRFSGSGSGTDFTLKISRVEAEDVGVYYCFQGSHVPYTFGQGTKLEIK
tumor growth / cancer remission (result in words): did initially slow tumor growth compared to vehicle control but failed to stop cancer progression; also recorded: modest
